Test results published in patent US12643867B2, “Compositions and uses thereof” (University of Virginia Patent Foundation, priority 2017, dated 2026).

test system: M3K2/M3K3 (Mitogen-activated protein kinase kinase kinase 2); experiment: SILAC LC-MS ATP acyl phosphate probe competition, native kinases in HEK293T; format: binding, Homo sapiens; conditions: site Lys2; ATP 1 mM; Ketanserin, Ritanserin 100 μM; RF001 1 mM
Method: Proteomes were diluted to 2 mg/ml in kinase buffer. The light and heavy proteomes (0.5 mg, 250 μL total reaction volume) were pre-treated with vehicle or compound, respectively (5 μL, DMSO (light) or 50× stock in DMSO (heavy)), mixed gently, and incubated at 25° C. for 30 min. […] After incubation, matched light and heavy proteomes were transferred and mixed in a 1:1 ratio in a two-dram vial containing 4:1:3 MeOH/CHCl3/H2O (2 mL MeOH, 500 AL CHCl3, 1.5 mL H2O) for extraction of proteins to remove excess probe, quickly vortexed, and centrifuged at 1,400×g for 3 min to pellet protein. Organic and aqueous layers were removed using a Pasteur pipette, and the protein pellet was transferred to a screw-top tube in 600 μL MeOH. A second extraction was performed by adding CHCl3 (150 μL) and H2O (600 μL) to each sample, vortexed, and centrifuged at 1,400×g for 3 min to pellet protein. Organic and aqueous layers were removed by pipetting. MeOH added to pellet (600 μL) and pellets were re-suspended by sonication (3×1 sec pulse, 20% amplitude) for a final extraction. Samples were then centrifuged at 17,000×g for 5 min to pellet protein and MeOH was removed by pipetting. The pellets were re-suspended in 10 M urea/25 mM ammonium bicarbonate ([…]), brought to a final volume of 1 mL with 25 mM ammonium bicarbonate, reduced with 10 mM DTT for 15 min at 65° C. allowed to cool, and then alkylated with 40 mM iodoacetamide for 30 min at 25° C. in the dark. To desalt the samples, each was transferred to a two-dram glass vial, and to the vial 4:1:2 MeOH/CHCl3/H2O (2 mL MeOH, 500 AL CHCl3, 1 mL H2O) was added. The vials were vortexed quickly, spun at 1.400×g for 3 min to pellet protein, and aqueous and organic layers were removed using a Pasteur pipette. The resulting protein pellet was transferred to a screw-top tube in 600 μL MeOH, and then CHCl3 (150 μL) and HO (600 μL) were added to extract protein a second time. […]
The peptide samples were analyzed by liquid chromatography-mass spectrometry. […]

SILAC ratio, M3K2/M3K3 probe-modified peptide	Structure (SMILES)
1.1	O=C(c1ccc(F)cc1)C1CCN(CCn2c(=O)[nH]c3ccccc3c2=O)CC1 [Ketanserin]
1.0	Fc1ccc(C(=C2CCNCC2)c2ccc(F)cc2)cc1 [RF001, 4-(Bis(4-fluorophenyl)methylene) piperidine]

Structure (SMILES)	SILAC ratio, M3K2/M3K3 probe-modified peptide
Cc1nc2sccn2c(=O)c1CCN1CCC(=C(c2ccc(F)cc2)c2ccc(F)cc2)CC1 [Ritanserin]	1.2
